For 28 compounds, IC50 results are on record in patent US9403830B2, “Inhibitors of leukotriene production” (Boehringer Ingelheim International GmbH, priority 2012, dated 2016).

Assay [1] has as its target T1, human LTA4 hydrolase (Homo sapiens, UniProt P09960).
T1 sequence (P09960 1-611): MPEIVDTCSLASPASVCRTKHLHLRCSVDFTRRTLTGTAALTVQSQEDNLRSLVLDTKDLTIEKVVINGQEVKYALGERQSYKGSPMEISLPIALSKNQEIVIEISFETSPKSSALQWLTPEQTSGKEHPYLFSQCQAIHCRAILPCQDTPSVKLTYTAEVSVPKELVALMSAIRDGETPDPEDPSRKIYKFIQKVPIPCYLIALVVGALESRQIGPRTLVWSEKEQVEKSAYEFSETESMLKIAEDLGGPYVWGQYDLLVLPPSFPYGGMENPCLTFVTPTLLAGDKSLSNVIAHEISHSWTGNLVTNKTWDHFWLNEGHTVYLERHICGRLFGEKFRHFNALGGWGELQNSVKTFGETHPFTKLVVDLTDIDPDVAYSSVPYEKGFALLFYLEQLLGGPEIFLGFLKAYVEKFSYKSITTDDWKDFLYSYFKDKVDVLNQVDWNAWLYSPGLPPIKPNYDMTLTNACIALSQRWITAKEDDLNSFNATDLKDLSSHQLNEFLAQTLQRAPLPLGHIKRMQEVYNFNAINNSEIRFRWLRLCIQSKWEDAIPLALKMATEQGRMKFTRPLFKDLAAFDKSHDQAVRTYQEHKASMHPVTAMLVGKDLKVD
Put plainly: LTA4H Enzyme assay (peptidase, Arg-AMC cleavage). Format: biochemical. Conditions: LTA4H enzyme 1 nM, Arg-AMC substrate 50 μM, room temperature 1 h, fluorescence 380/460 nm. The method in brief:
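Human LTA4H (1 nM final) incubated with compound and Arg-AMC (50 μM final) in 50 mM Tris-HCl pH 7.5, 100 mM KCl, 0.5% BSA, 1 h at room temperature. Product read as AMC fluorescence (ex 380/em 460 nm); IC50 reported.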

For assay [2], the system named is LTB4 synthesis in human whole blood. Kind of assay: human whole blood (HWB) assay, inhibition of LTB4 production. Conditions: heparinized human whole blood, calcimycin 20 μM stimulation, plasma LTB4. The assay is classed as cell-based. The method in brief:
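Plasma LTB4, quantified by HTRF immunoassay, is the read-out after calcimycin challenge (20 μM final, 30 min, 37 °C) of heparinized whole blood that had been pretreated with compound for 15 min at 37 °C; values given as IC50.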

Molecules are shown by their SMILES. pIC50: −log10 of the molar value.

As for `c1cc(-c2ccc(Oc3ccc4nc(CN5CCCC5)ccc4c3)cc2)[nH]n1` [Example 243, 6-[4-(2H-Pyrazol-3-yl)-phenoxy]-2-pyrrolidin-1-ylmethyl-quinoline], the negative logarithm of the IC50 (pIC50) in assay [1] is 10.19; in assay [2], 7.18.

`c1cc(-c2ccc(Oc3ccc4nc(CN5CCCC5)ccc4c3)nc2)[nH]n1` [Example 19, 6-[5-(2H-Pyrazol-3-yl)-pyridin-2-yloxy]-2-pyrrolidin-1-ylmethyl-quinoline]: the pIC50 in assay [1] is 9.62; in assay [2], 7.15.

Take `c1cc(-c2ccc(Oc3ccc4c(cnn4CCN4CCCC4)c3)cc2)[nH]n1` [Example 75, 5-[4-(2H-pyrazol-3-yl)-phenoxy]-1-(2-pyrrolidin-1-yl-ethyl)-1H-indazole]: the pIC50 in assay [1] is 9.62; in assay [2], 7.08.

Take `C[C@@H]1CCCCN1Cc1nc2cc(Oc3ccc(-c4ccn[nH]4)cc3)ccc2[nH]1` [Example 165, 2-((R)-2-Methyl-piperidin-1-ylmethyl)-5-[4-(2H-pyrazol-3-yl)-phenoxy]-1H-benzoimidazole]: the pIC50 in assay [1] is 10.12; in assay [2], 6.92.

Consider `O=C1CC[C@@H](COc2nccc3cc(Oc4ccc(-c5ccn[nH]5)cc4)ccc23)N1` [Example 119, (S)-5-{6-[4-(2H-Pyrazol-3-yl)-phenoxy]-isoquinolin-1-yloxymethyl}-pyrrolidin-2-one], for which the pIC50 in assay [1] was 7.70; in assay [2], 5.70.

Regarding `CC(=O)N1C[C@@H]2C[C@H]1CN2Cc1ccc2cc(Oc3ccc(-c4cc[nH]n4)cn3)ccc2n1` [Example 240, 1-((S)-5-{6-[5-(1H-Pyrazol-3-yl)-pyridin-2-yloxy]-quinolin-2-ylmethyl}-2,5-diaza-bicyclo[2.2.1]hept-2-yl)-ethanone], the values for the negative-log IC50 (pIC50) in assay [1] and in assay [2] were 9.03 and 6.47, respectively.

Take `c1cc(-c2ccc(Cc3ccc4nc(CN5CCOCC5)cn4c3)cc2)[nH]n1` [Example 252, 2-Morpholin-4-ylmethyl-6-[4-(2H-pyrazol-3-yl)-benzyl]-imidazo[1,2-a]pyridine]: the pIC50 in assay [1] is 9.03; in assay [2], 6.60.

On to `O=C(O)c1nc2cc(Oc3ccc(-c4cc[nH]n4)cc3)ccc2[nH]1` [Example 69, 5-[4-(1H-Pyrazol-3-yl)-phenoxy]-1H-benzoimidazole-2-carboxylic acid], for which the pIC50 in assay [1] is 8.41; in assay [2] it was 6.19.

Take `c1cc(-c2ccc(Oc3ccc4[nH]c(CC5CCOCC5)nc4c3)cc2)[nH]n1` [Example 202, 5-[4-(2H-Pyrazol-3-yl)-phenoxy]-2-(tetrahydro-pyran-4-ylmethyl)-1H-benzoimidazole]: the pIC50 in assay [1] was 9.49; in assay [2], 6.70.

On to `O=C1[C@@H](O)CCN1C1CCN(Cc2ccc3cc(Oc4ccc(-c5ccn[nH]5)cn4)ccc3c2)CC1` [Example 7, (S)-3-Hydroxy-1-(1-{6-[5-(2H-pyrazol-3-yl)-pyridin-2-yloxy]-naphthalen-2-ylmethyl}-piperidin-4-yl)-pyrrolidin-2-one], for which the pIC50 in assay [1] was 9.17; in assay [2] it was 6.74.

As to `c1cc(-c2ccc(Cc3ccc4nc(CN5CCCC5)[nH]c4c3)cc2)[nH]n1` [Example 54, 6-[4-(2H-Pyrazol-3-yl)-benzyl]-2-pyrrolidin-1-ylmethyl-1H-benzoimidazole], the pIC50 in assay [1] was 9.89; in assay [2] it was 7.03.

`CC1(C)CCN(Cc2nc3cc(Oc4ccc(-c5ccn[nH]5)cc4)ccc3[nH]2)C1=O` [Example 234, 3,3-Dimethyl-1-{5-[4-(2H-pyrazol-3-yl)-phenoxy]-1H-benzoimidazol-2-ylmethyl}-pyrrolidin-2-one]: the pIC50 was 9.59 in assay [1] and 6.74 in assay [2].

Consider `CN(C)C(=O)C1CCN(CC2Cc3ccc(Oc4ccc(-c5ccn[nH]5)cc4)cc3O2)CC1` (centres unmarked) [Example 197, 1-{6-[4-(2H-Pyrazol-3-yl)-phenoxy]-2,3-dihydro-benzofuran-2-ylmethyl}-piperidine-4-carboxylic acid dimethylamide], for which the pIC50 in assay [1] is 9.34; in assay [2] it was 6.74.

Take `c1cc(-c2ccc(Oc3ccc4nc(CN5CCC6(COC6)C5)ccc4c3)nc2)[nH]n1` [Example 20, 2-(2-Oxa-6-aza-spiro[3.4]oct-6-ylmethyl)-6-[5-(2H-pyrazol-3-yl)-pyridin-2-yloxy]-quinoline]: the pIC50 in assay [1] was 9.52; in assay [2], 7.09.

With `c1cc(-c2ccc(Oc3ccc4c(cnn4CCCN4CCCC4)c3)cc2)[nH]n1` [Example 79, 5-[4-(2H-Pyrazol-3-yl)-phenoxy]-1-(3-pyrrolidin-1-yl-propyl)-1H-indazole], the pIC50 in assay [1] was 9.52; in assay [2], 7.01.

Consider `O=C1OCCN1Cc1cn2cc(Oc3ccc(-c4ccn[nH]4)cc3)ccc2n1` [Example 255, 3-{6-[4-(2H-Pyrazol-3-yl)-phenoxy]-imidazo[1,2-a]pyridin-2-ylmethyl}-oxazolidin-2-one], for which the pIC50 in assay [1] is 8.77; in assay [2], 6.44.

For `NC(=O)N1CCN(Cc2ccc3cc(Oc4ccc(-c5ccn[nH]5)cn4)ccc3n2)CC1` [Example 43, 4-{6-[5-(2H-Pyrazol-3-yl)-pyridin-2-yloxy]-quinolin-2-ylmethyl}-piperazine-1-carboxylic acid amide], the pIC50 in assay [1] was 8.41; in assay [2] it was 6.42.

Regarding `c1cc(-c2ccc(Oc3ccc4nc(CN5CCCCC5)ccc4c3)nc2)[nH]n1` [Example 23, 2-Piperidin-1-ylmethyl-6-[5-(2H-pyrazol-3-yl)-pyridin-2-yloxy]-quinoline], the pIC50 is 9.32 in assay [1] and 7.05 in assay [2].

Consider `c1cc(-c2ccc(Oc3ccc4[nH]c(CN5CC6(COC6)C5)nc4c3)cc2)[nH]n1` [Example 72, 2-(2-Oxa-6-aza-spiro[3.3]hept-6-ylmethyl)-5-[4-(2H-pyrazol-3-yl)-phenoxy]-1H-benzoimidazole], for which the pIC50 was 9.85 in assay [1] and 6.49 in assay [2].

`OC1CN(Cc2ccc3c(ccn3Cc3ccc(-c4ccn[nH]4)cc3)c2)C1` [Example 216, 1-{1-[4-(2H-Pyrazol-3-yl)-benzyl]-1H-indol-5-ylmethyl}-azetidin-3-ol]: the figures for the pIC50 in assay [1] and in assay [2] were 9.70 and 6.96, respectively.

Take `CCN(CCO)Cc1nc2cc(Oc3ccc(-c4ccn[nH]4)cc3)ccc2[nH]1` [Example 192, 2-(Ethyl-{5-[4-(2H-pyrazol-3-yl)-phenoxy]-1H-benzoimidazol-2-ylmethyl}-amino)-ethanol]: the results for the pIC50 in assay [1] and in assay [2] were 9.77 and 6.77, respectively.

In the case of `CC(=O)N1CCN(CCc2ccc3cc(Oc4ccc(-c5ccn[nH]5)cn4)ccc3n2)CC1` [Example 108, 1-[4-(2-{6-[5-(2H-pyrazol-3-yl)-pyridin-2-yloxy]-quinolin-2-yl}-ethyl)-piperazin-1-yl]-ethanone], the pIC50 is 9.27 in assay [1] and 6.64 in assay [2].

As to `COCC(=O)NC1CCN(Cc2ccc3cc(Oc4ccc(-c5cc[nH]n5)cn4)ccc3n2)CC1` [Example 236, 2-Methoxy-N-(1-{6-[5-(1H-pyrazol-3-yl)-pyridin-2-yloxy]-quinolin-2-ylmethyl}-piperidin-4-yl)-acetamide], the figures for the negative-log IC50 (pIC50) in assay [1] and in assay [2] were 9.02 and 6.70, respectively.

Regarding `OCCCn1ncc2cc(Oc3ccc(-c4ccn[nH]4)cc3)ccc21` [Example 118, 3-{5-[4-(2H-Pyrazol-3-yl)-phenoxy]-indazol-1-yl}-propan-1-ol], the pIC50 in assay [1] is 8.15; in assay [2], 6.12.

Turning to `CCN(Cc1nc2cc(Oc3ccc(-c4ccn[nH]4)cc3)ccc2[nH]1)C(=O)C1CC1` [Example 235, Cyclopropanecarboxylic acid ethyl-{5-[4-(2H-pyrazol-3-yl)-phenoxy}-1H-benzoimidazol-2-ylmethyl}-amide], the figures for the pIC50 in assay [1] and in assay [2] were 9.37 and 6.74, respectively.

In the case of `CN(Cc1nc2cc(Oc3ccc(-c4ccn[nH]4)cc3)ccc2[nH]1)CC1CCOCC1` [Example 159, Methyl-{5-[4-(2H-pyrazol-3-yl)-phenoxy]-1H-benzoimidazol-2-ylmethyl}-(tetrahydro-pyran-4-ylmethyl)-amine], the pIC50 in assay [1] was 9.72; in assay [2] it was 6.96.

For the compound `CN(CC(N)=O)Cc1ccc2cc(Oc3ccc(-c4ccn[nH]4)cn3)ccc2n1` [Example 47, 2-(Methyl-{6-[5-(2H-pyrazol-3-yl)-pyridin-2-yloxy]-quinolin-2-ylmethyl}-amino)-acetamide], the pIC50 is 8.89 in assay [1] and 6.24 in assay [2].

`CC(=O)NCCNCc1ccc2cc(Oc3ccc(-c4ccn[nH]4)cn3)ccc2n1` [Example 121, N-[2-({6-[5-(2H-Pyrazol-3-yl)-pyridin-2-yloxy]-quinolin-2-ylmethyl}-amino)-ethyl]-acetamide]: the values for the pIC50 in assay [1] and in assay [2] were 8.82 and 6.41, respectively.

By pIC50 is commonly meant the negative decadic logarithm of the IC50, by convention in mol/L.
